Laboratory results reported in ChEMBL document CHEMBL1201862, “PubChem BioAssay data set” (2004).
Calls of active or inactive are those of the source.

Key:
[1] = target: Glucose-6-phosphate 1-dehydrogenase (Homo sapiens, UniProt P11413); test: inhibition of Homo sapiens G6PD, dose series – biochemical, fluorescence, selectivity assay for P. falciparum G6PD inhibitor project, dose response (AID 504792); assay type: functional
[2] = target: Delta-type opioid receptor (Homo sapiens, UniProt P41143); test: Counterscreen for agonists of heterodimerization of the mu 1 (OPRM1) and delta 1 (OPRD1) opioid receptors: Luminescence-based cell-based high throughput dose response assay to identify agonists of OPRD1 homodimerization. [Related pubchem assays (depositor defined):AID504326, AID504355, AID504692, AID504904, AID504905]; assay type: functional
Mu-type opioid receptor = Mu-type opioid receptor (Homo sapiens, UniProt P35372); test: Counterscreen for agonists of heterodimerization of the mu 1 (OPRM1) and delta 1 (OPRD1) opioid receptors: Luminescence-based cell-based high throughput dose response assay to identify agonists of OPRM1 homodimerization.; assay type: functional;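 also: U2OS cells expressing OPRM1 and beta-arrestin as split beta-galactosidase partners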
[3] = target: T1, Short transient receptor potential channel 4 (Mus musculus, UniProt Q9QUQ5); test: calcium entry via TRPC4 opening agents – cell-based, HEK293 TRPC4/mu-opioid, Fluo-4 calcium, dose response (AID 434937); assay type: functional
T1 sequence (Q9QUQ5 whole entry): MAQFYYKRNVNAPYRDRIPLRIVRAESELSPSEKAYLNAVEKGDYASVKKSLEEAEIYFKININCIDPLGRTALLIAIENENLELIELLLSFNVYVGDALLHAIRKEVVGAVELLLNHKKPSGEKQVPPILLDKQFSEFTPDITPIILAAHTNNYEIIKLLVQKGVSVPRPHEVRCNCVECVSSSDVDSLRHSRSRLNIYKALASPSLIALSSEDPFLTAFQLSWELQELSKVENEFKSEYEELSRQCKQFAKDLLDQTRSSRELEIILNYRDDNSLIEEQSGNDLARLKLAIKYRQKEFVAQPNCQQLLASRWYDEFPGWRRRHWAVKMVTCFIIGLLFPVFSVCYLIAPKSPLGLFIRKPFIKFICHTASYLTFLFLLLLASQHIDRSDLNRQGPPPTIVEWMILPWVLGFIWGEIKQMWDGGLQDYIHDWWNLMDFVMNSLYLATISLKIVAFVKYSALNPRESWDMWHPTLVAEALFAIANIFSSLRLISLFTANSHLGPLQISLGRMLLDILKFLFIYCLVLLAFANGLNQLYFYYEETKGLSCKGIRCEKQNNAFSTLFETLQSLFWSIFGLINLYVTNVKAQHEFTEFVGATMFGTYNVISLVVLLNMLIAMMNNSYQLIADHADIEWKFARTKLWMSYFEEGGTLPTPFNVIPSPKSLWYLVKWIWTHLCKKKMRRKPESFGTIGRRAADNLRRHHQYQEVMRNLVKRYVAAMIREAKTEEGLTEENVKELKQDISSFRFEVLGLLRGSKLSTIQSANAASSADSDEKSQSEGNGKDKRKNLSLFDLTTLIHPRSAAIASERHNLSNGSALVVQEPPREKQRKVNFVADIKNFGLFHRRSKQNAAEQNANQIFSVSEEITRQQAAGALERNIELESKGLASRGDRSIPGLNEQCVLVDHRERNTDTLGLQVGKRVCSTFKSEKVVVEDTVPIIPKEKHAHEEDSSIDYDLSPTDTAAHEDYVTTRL

[4] = target: 5-hydroxytryptamine receptor 5A (Homo sapiens, UniProt P47898); test: Counterscreen for agonists of OPRM1-OPRD1 heterodimerization: luminescence-based cell-based high throughput dose response assay to identify agonists of 5-hydroxytryptamine (serotonin) 5A receptor (HTR5A). [Related pubchem assays (depositor defined):AID504326, AID504355, AID504692, AID504904, AID504905]; assay type: functional
[5] = luciferase reporter signal suppression in cells – H4 neuroglioma cells, luminescence, dose response (AID 1990); assay type: functional, cell-based
[6] = Luminescence Cell-Based Dose Response HTS to Identify Inhibitors of 5'UTR Stem-Loop Driven Prion Protein mRNA Translation in H4 Neuroglioblastoma Cells. [Related pubchem assays: 1827 (Project Summary), 1813 (Primary HTS)]; assay type: functional
BJ [7] = test: BJ-TERT-LT-ST fibroblast viability loss – cell-based, RAS-independent, luminescence, dose response (AID 1935); assay type: functional; conditions: Homo sapiens;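 also: BJ fibroblasts immortalized with TERT plus LT and ST oncogenes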
BJ [8] = test: BJ-TERT fibroblast viability loss – cell-based, RAS-independent, luminescence, dose response (AID 1933); assay type: functional; conditions: Homo sapiens
BJ [9] = test: cells; assay type: functional, cell-based; conditions: Homo sapiens
[10] = alpha-synuclein stem-loop luciferase translation blockers – H4 neuroglioma cells, luminescence, confirmation (AID 1988); assay type: functional, cell-based
[11] = DRD fibroblast viability loss – cell-based, non-viral oncogenic, luminescence, dose response (AID 1934); assay type: functional; conditions: Homo sapiens
[12] = HEK-293T viability loss after treatment – luminescence, T-cell screen hits, cytotoxicity control for TCR NF-kB inhibitor project, dose response (AID 489026); assay type: functional, cell-based;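 also: cells exposed to compound about 14 hours before the viability readout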
Caspase-3 = target: T2, Caspase-3 (Homo sapiens, UniProt P42574); assay type: functional;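 also: Dose-response selectivity test against caspase-3 for candidate inhibitors of sentrin-specific proteases (SENPs)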
T2 sequence (P42574 whole entry): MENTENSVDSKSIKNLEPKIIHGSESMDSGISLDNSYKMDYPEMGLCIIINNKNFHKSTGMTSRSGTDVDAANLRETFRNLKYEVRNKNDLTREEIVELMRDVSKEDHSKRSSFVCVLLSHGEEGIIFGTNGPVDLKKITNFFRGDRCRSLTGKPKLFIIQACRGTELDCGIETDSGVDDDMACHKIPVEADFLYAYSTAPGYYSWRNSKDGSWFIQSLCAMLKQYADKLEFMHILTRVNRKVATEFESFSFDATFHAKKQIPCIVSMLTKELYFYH

[13] = target: T3, Sentrin-specific protease 8 (Homo sapiens, UniProt Q96LD8); assay type: functional;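 also: luminescence read-out of SENP8 inhibition, dose-response confirmation following an ultra-high-throughput screen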
T3 sequence (Q96LD8 whole entry): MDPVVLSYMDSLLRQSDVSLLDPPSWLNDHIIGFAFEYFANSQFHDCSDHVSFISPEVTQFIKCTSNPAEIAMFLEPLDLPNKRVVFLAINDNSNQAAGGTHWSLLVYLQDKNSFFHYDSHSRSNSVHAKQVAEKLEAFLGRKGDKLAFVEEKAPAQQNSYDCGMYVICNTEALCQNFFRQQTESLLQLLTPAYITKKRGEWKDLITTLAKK

[14] = target: T4, Sentrin-specific protease 7 (Homo sapiens, UniProt Q9BQF6); assay type: functional;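 also: Luminescence-based dose-response confirmation of ultra-high-throughput screening hits, measuring inhibition of SENP7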
T4 sequence (Q9BQF6 whole entry): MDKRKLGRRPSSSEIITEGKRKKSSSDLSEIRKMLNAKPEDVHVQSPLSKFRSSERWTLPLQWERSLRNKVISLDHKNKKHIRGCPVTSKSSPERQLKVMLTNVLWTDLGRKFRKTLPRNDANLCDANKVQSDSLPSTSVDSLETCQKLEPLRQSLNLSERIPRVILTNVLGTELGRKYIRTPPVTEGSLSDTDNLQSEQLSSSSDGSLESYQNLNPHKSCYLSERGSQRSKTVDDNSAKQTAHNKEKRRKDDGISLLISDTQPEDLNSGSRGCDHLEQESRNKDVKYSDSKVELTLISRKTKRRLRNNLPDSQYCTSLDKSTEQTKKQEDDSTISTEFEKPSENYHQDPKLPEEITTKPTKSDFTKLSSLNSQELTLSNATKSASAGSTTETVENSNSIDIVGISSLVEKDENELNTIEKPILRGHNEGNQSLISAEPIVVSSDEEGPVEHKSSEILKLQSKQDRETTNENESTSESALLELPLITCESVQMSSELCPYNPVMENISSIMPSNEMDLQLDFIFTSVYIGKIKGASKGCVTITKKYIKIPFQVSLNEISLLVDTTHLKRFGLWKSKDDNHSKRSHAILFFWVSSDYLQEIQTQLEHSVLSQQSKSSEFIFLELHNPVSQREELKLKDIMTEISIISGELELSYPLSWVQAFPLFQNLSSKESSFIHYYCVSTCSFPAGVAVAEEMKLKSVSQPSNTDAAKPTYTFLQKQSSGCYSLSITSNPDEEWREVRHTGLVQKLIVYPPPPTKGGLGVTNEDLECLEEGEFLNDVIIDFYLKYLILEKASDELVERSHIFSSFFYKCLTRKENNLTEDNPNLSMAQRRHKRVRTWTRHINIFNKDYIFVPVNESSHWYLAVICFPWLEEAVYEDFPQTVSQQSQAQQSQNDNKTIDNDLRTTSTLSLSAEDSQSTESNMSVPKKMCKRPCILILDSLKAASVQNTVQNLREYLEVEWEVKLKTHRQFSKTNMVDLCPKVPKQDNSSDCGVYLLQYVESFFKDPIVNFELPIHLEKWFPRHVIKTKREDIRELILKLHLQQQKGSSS

cells = assay type: functional
[15] = target: T5, Sentrin-specific protease 6 (Homo sapiens, UniProt Q9GZR1); assay type: functional;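 also: Luminescence-based dose-response confirmatory assay of SENP6 inhibition, following up an ultra-high-throughput screen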
T5 sequence (Q9GZR1 whole entry): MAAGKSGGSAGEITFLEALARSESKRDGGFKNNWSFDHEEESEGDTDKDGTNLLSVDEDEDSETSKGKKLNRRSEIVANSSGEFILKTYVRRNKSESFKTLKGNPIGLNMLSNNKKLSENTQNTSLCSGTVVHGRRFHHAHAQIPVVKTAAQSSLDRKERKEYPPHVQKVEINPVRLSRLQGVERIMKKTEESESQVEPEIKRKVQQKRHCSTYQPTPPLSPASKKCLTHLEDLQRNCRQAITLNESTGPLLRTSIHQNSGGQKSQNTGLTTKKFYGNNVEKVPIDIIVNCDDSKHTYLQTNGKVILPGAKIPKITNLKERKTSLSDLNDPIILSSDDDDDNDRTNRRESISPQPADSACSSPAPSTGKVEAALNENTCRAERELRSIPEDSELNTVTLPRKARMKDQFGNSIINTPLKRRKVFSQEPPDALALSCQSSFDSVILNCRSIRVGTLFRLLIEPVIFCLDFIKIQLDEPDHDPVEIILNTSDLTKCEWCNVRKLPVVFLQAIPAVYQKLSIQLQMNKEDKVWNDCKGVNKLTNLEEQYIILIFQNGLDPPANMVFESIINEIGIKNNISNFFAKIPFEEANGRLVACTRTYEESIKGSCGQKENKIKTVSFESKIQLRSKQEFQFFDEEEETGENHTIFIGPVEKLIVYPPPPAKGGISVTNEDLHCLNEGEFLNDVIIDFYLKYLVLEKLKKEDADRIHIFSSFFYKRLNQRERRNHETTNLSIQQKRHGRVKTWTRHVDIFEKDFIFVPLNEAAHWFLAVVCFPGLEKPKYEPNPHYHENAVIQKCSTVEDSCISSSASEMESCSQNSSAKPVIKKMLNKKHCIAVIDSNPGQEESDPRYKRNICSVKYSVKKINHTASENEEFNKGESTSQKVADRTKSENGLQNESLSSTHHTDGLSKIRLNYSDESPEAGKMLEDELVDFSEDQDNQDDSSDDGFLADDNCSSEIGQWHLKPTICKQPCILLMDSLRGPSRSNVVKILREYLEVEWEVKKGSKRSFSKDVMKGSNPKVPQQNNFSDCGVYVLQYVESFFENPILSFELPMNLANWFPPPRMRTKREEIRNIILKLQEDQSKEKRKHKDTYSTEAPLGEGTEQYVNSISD

[16] = NIH3T3 cell viability loss – ATP luminescence, mouse fibroblasts, counter-screen, dose response (AID 2010); assay type: functional, cell-based;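 also: cells exposed to compound for about 90 hours before reading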
[17] = Trypanosoma cruzi growth suppression in host cells – NIH3T3 host cells, beta-gal luminescence, confirmation (AID 2044); assay type: functional, cell-based;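 also: intracellular parasites grown in NIH/3T3 mouse fibroblasts as host cells; luminescent beta-galactosidase reporter signal from transgenic T. cruzi replicating inside host cells; inhibitors lower the luminescence signal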
[18] = Luminescence Cell-Based Dose Retest to Confirm Inhibitors of Cancer Stem Cells. [Related pubchem assays (depositor defined):AID2717, AID2721]; assay type: functional; conditions: Homo sapiens
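For AC50 in this document: cells exposed to compound for roughly 70 hours or longer before luminescence read.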

Glucose-6-phosphate 1-dehydrogenase, sequence (P11413 whole entry): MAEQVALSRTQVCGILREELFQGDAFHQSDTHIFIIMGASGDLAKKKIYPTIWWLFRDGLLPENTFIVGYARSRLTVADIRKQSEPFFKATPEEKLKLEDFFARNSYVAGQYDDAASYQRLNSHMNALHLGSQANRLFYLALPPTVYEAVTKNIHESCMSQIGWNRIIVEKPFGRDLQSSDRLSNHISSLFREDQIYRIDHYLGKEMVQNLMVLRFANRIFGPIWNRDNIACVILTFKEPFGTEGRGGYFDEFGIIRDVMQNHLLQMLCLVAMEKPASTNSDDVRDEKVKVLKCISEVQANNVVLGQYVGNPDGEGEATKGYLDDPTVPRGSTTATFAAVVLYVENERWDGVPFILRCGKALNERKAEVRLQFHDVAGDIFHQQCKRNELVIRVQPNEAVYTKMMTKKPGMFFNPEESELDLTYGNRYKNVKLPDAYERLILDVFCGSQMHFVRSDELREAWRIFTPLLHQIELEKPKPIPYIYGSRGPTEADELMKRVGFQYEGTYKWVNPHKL
Delta-type opioid receptor, sequence (P41143 whole entry): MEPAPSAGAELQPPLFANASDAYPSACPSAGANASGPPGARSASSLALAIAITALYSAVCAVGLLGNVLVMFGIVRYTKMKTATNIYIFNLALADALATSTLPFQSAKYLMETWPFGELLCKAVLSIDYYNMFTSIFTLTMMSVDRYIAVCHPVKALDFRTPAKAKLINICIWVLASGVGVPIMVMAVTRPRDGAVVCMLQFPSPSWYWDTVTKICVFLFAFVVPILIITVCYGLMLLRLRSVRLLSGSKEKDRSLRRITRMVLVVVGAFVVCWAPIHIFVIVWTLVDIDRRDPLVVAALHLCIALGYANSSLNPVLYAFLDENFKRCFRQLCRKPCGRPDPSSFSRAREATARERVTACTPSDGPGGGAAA
5-hydroxytryptamine receptor 5A, sequence (P47898 whole entry): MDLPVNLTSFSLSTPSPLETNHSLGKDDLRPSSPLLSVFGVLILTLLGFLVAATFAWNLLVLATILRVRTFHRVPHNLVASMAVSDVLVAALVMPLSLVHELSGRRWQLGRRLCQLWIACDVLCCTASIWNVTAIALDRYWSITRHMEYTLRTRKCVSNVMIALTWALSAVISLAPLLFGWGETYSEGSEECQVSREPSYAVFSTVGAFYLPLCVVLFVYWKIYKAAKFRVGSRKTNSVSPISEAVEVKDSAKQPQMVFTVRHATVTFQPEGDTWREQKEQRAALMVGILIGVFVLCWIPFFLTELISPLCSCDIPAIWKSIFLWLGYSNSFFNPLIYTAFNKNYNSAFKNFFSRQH
Mu-type opioid receptor, sequence (P35372 whole entry): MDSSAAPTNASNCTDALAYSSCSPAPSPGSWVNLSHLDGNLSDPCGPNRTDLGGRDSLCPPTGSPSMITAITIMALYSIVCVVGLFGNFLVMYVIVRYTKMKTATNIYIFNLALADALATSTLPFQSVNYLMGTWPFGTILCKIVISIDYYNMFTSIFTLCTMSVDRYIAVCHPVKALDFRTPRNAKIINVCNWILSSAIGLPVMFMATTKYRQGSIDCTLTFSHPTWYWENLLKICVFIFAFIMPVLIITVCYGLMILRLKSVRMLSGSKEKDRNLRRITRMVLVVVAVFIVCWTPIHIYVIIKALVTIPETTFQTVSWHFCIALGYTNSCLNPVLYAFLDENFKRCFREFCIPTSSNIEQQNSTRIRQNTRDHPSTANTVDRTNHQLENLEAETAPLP

Row | Compound | IC50 [1] | EC50 [2] | EC50 (Mu-type opioid receptor) | EC50 [3] | EC50 [4] | IC50 (Caspase-3) | IC50 [13] | IC50 [14] | IC50 [15] | also measured
1 | O=C(Nc1nnc(S(=O)(=O)N2CCOCC2)s1)c1ccc(F)cc1 | > 80 µM (inactive) |  |  |  |  |  |  |  |  | 
2 | CN(C)CCCN(C(=O)c1ccc(S(=O)(=O)N2CCc3ccccc3C2)cc1)c1nc2c(F)cc(F)cc2s1 |  | > 92.5 µM (inactive) | 5.1 µM (active) | 1.19 µM (active) | > 92.5 µM (inactive) |  |  |  |  | 
3 | O=C(c1cc(-c2ccncc2)nc2c(Cl)cccc12)N1CCN(c2ccccc2F)CC1 |  |  |  |  |  |  |  |  |  | EC50 [5]: 7.93 µM (inconclusive); EC50 [6]: > 120 µM (not active); EC50 (BJ [7]): 4.08 µM (active); EC50 (BJ [8]): 8.6 µM (inconclusive); EC50 (BJ [9]): 18.9 µM (active); EC50 [10]: 3.67 µM (active); EC50 [11]: 12.8 µM (inconclusive); IC50 [12]: > 80 µM (inactive)
4 | COc1ccc(N=C2C(=S)N(c3ccc(OC)cc3)C(=NS(=O)(=O)c3ccccc3)N2c2ccccc2)cc1 | > 80 µM (inactive) |  |  |  |  |  |  |  |  | 
5 | O=C(OCC(=O)N1CCC(c2ccccc2)=N1)c1ccc([N+](=O)[O-])s1 |  |  |  |  |  | 28.2 µM (active) | 5.92 µM (active) | 18.9 µM (active) | 7.19 µM (active) | IC50 (cells): 1.13 µM (active); EC50 [16]: > 30 µM (not active); EC50 [17]: 0.809 µM (active)
6 | O=C(Nc1ccccc1)c1ccc(-c2ccccc2Cl)o1 |  |  |  |  |  | 74.3 µM (active) | > 100 µM (inactive) | 4.47 µM (active) | > 100 µM (inactive) | 
7 | CC(C)(C)c1ccc(O)c(O)c1 | > 80 µM (inactive) |  |  |  |  |  |  |  |  | AC50 [18]: 4.47 µM (active)
8 | CCc1cccc(C)c1N=C(S)NCC(c1cccnc1)N(C)C (centres undefined) |  | 79.4 µM (inactive) | > 92.5 µM (inactive) | 0.0467 µM (active) | > 92.5 µM (inactive) |  |  |  |  | 
9 | Brc1ccc(NN=Nc2ccccc2)cc1 |  |  |  |  |  | 27.1 µM (active) | 10.9 µM (active) | 4.66 µM (active) | 11.2 µM (active) | 
10 | CCOC(=O)C1(CC2CC2)CCN(Cc2cnc(-c3ccccc3C)nc2)CC1 |  | > 92.5 µM (inactive) | > 92.5 µM (inactive) | 5.31 µM (active) | > 92.5 µM (inactive) |  |  |  |  | 
